Assay results from patent US7645720B2, “Extreme environment surfactant compositions comprising hydrolysis resistant organomodified disiloxane surfactants” (Momentive Performance Materials Inc., priority 2005, dated 2010).

How the values were obtained:
Assay type in all cases: physicochemical
[1] = Surface tension (Kruss surface tensiometer); details: 0.1 wt % in 0.005M NaCl water
Protocol: Surface tension was measured using a Kruss surface tensiometer, with a sand blasted platinum blade as the sensor. Solutions of the various components were prepared at 0.1 wt % in 0.005M NaCl water (Deionized), as an equilibrium aid.

[2] = Spreading of 10 μL droplet on polyacetate film; details: 30 seconds
Protocol: (§1) Spreading was determined by applying a 10 μL droplet, of surfactant solution to polyacetate film (USI, “Crystal Clear Write on Film”) and measuring the spread diameter (mm) after 30 seconds, at a relative humidity between 50 and 70% (at 22 to 25° C.). The solution was applied with an automatic pipette to provide droplets of reproducible volume. Deionized water that was further purified with a Millipore filtration system was used to prepare the surfactant solutions.

[3] = Hydrolytic stability by HPLC; details: 0.5 wt %
Protocol: Hydrolytic stability was determined for representative compositions of the present invention using HPLC. Solutions of the various compositions were prepared at 0.5 wt % over a pH range from pH 4 to pH 12, and monitored by HPLC for decomposition as a function of time.
• Detector: ELSD/LTA (Evaporative Light Scattering with Low Temperature Adapter • Conditions: 30° C., 1.95 SLPM N2 • Column: Phenomenex LUNA C18 end cap, 5 micron, 75×4.6 mm • Flow Rate: 1.0 mL/min. • Inj. Volume: 10 microliters • Sample: 0.050 g/mL in methanol

[4] = Hydrolytic stability by HPLC
[5] = Spreading properties vs time at set pH (resistance to hydrolysis); details: 0.4 wt %
Protocol: as §1
Therefore solutions of the organomodified disiloxane surfactants of the present invention, as well as comparative surfactants were prepared at desired use levels and pH. Spreading was determined as a function of time to illustrate resistance to hydrolysis. […]
Solutions (0.4 wt %) of the surfactants were prepared at pH 4 and pH 5 and spreading properties were observed over time. The test conditions are outlined in Example 8.

For `C[Si](C)(C)O[Si](C)(C)CCCOCCOCCOCCOCCOCCOCCOCCOCCOCCOCCOCCO` [Comparative C, reference compound], the “Surface Tension” value [1] was 24.1 mN/m, the “Spread Diameter” value ([2]; 0.1%) was 6 mm and the “Spread Diameter” value ([2]; 0.2%) was 8 mm. The “Spread Diameter” value ([2]; 0.4%) was 9 mm.
For `C[Si](C)(CCCOCCOCCOCCOCCOCCOCCOCCOCCOCCOCCOCCO)O[Si](C)(C)C1CC2CC1C1C=CCC21` (stereo not shown) [Comparative D, reference compound], the “Surface Tension” value [1] was 32.7 mN/m, the “Spread Diameter” value ([2]; 0.1%) was 7 mm and the “Spread Diameter” value ([2]; 0.4%) was 6 mm. For the same compound, the “Stability: % Siloxane Surfactant Remaining” value ([3]; pH 5, 48 h) was >95%, the “Stability: % Siloxane Surfactant Remaining” value ([3]; pH 5, 9 days) was 99% and the “Stability: % Siloxane Surfactant Remaining” value ([3]; pH 7, 48 h) was >95%. For the same compound, the “Stability: % Siloxane Surfactant Remaining” value ([3]; pH 9, 48 h) was >95%, the “Stability: % Siloxane Surfactant Remaining” value ([4]; pH 4, 48 h, 0.5 wt %) was 82% and the “Stability: % Siloxane Surfactant Remaining” value ([4]; pH 4, 9 days, 0.5 wt %) was 44%. The “Stability: % Siloxane Surfactant Remaining” value ([4]; pH 7, 9 days, 0.5 wt %) was 99%, the “Stability: % Siloxane Surfactant Remaining” value ([4]; pH 9, 9 days, 0.5 wt %) was 99% and the “Stability: % Siloxane Surfactant Remaining” value ([4]; pH 10, 48 h, 0.5 wt %) was >95%. For the same compound, the “Stability: % Siloxane Surfactant Remaining” value ([4]; pH 10, 9 days, 0.5 wt %) was 99%.
For `CC(C)(C)CC(C)(C)c1ccc(OCCOCCOCCOCCOCCOCCOCCOCCOCCOCCO)cc1` [OPE, Octylphenolethoxylate], the “Surface Tension” value [1] was 31.8 mN/m and the “Spread Diameter” value ([2]; 0.4%) was 10 mm.
For `CC(C)C[Si](C)(C)O[Si](C)(C)CCCOCCOCCOCCOCCOCCOCCOCCOCCOCCOCCOCCO` [Product 4], the “Surface Tension” value ([1]; listed as 4) was 24.1 mN/m, the “Spread Diameter” value ([2]; 0.1%, listed as 4) was 8 mm and the “Spread Diameter” value ([2]; 0.2%, listed as 4) was 9 mm. The “Spread Diameter” value ([2]; 0.4%, listed as 4) was 10 mm.
With `CC(C)C[Si](C)(C)O[Si](C)(C)CCCOCCOCCOCCOCCOCCOCCOCCOCCOCCOCCOCCO` [Product 7] the “Surface Tension” value ([1]; listed as 7) was 23.9 mN/m, the “Spread Diameter” value ([2]; 0.1%, listed as 7) was 14 mm and the “Spread Diameter” value ([2]; 0.2%, listed as 7) was 15 mm. For the same compound, the “Spread Diameter” value ([2]; 0.4%, listed as 7) was 25 mm.
For `C[Si](C)(C)CC[Si](C)(C)O[Si](C)(C)CCCOCCOCCOCCOCCOCCOCCOCCOCCOCCOCCOCCO` [Product 11], the “Surface Tension” value [1] was 24.5 mN/m, the “Spread Diameter” value ([2]; 0.1%) was 20 mm and the “Spread Diameter” value ([2]; 0.2%) was 21 mm. For the same compound, the “Spread Diameter” value ([2]; 0.4%) was 32 mm, the “Spreading Diameter” value ([5]; pH 4, 0 h) was 16 mm and the “Spreading Diameter” value ([5]; pH 4, 1 mo) was 10 mm. The “Spreading Diameter” value ([5]; pH 4, 1 wk) was 8 mm, the “Spreading Diameter” value ([5]; pH 4, 2 wk) was 8 mm and the “Spreading Diameter” value ([5]; pH 4, 3 wk) was 12 mm. For the same compound, the “Spreading Diameter” value ([5]; pH 4, 1 h) was 23 mm, the “Spreading Diameter” value ([5]; pH 4, 4 h) was 23 mm and the “Spreading Diameter” value ([5]; pH 4, 24 h) was 44 mm. For the same compound, the “Spreading Diameter” value ([5]; pH 4, 48 h) was 38 mm, the “Spreading Diameter” value ([5]; pH 4, 72 h) was 28 mm and the “Spreading Diameter” value ([5]; pH 5, 0 h) was 26 mm. For the same compound, the “Spreading Diameter” value ([5]; pH 5, 1 mo) was 42 mm, the “Spreading Diameter” value ([5]; pH 5, 1 wk) was 29 mm and the “Spreading Diameter” value ([5]; pH 5, 2 wk) was 33 mm. The “Spreading Diameter” value ([5]; pH 5, 3 wk) was 33 mm, the “Spreading Diameter” value ([5]; pH 5, 1 h) was 23 mm and the “Spreading Diameter” value ([5]; pH 5, 24 h) was 24 mm. The “Spreading Diameter” value ([5]; pH 5, 48 h) was 32 mm, the “Spreading Diameter” value ([5]; pH 5, 72 h) was 35 mm and the “Stability: % Siloxane Surfactant Remaining” value ([4]; pH 4, 3 wk, Stock Solution 2.5 wt %) was 79%. For the same compound, the “Stability: % Siloxane Surfactant Remaining” value ([4]; pH 4, 6 wk, Stock Solution 2.5 wt %) was 56%, the “Stability: % Siloxane Surfactant Remaining” value ([4]; pH 4, 11 wk, Stock Solution 2.5 wt %) was 10% and the “Stability: % Siloxane Surfactant Remaining” value ([4]; pH 4, 96 h, Stock Solution 2.5 wt %) was 100%. For the same compound, the “Stability: % Siloxane Surfactant Remaining” value ([4]; pH 5, 3 wk, Stock Solution 2.5 wt %) was 100%, the “Stability: % Siloxane Surfactant Remaining” value ([4]; pH 5, 6 wk, Stock Solution 2.5 wt %) was 100% and the “Stability: % Siloxane Surfactant Remaining” value ([4]; pH 5, 11 wk, Stock Solution 2.5 wt %) was 100%. For the same compound, the “Stability: % Siloxane Surfactant Remaining” value ([4]; pH 5, 96 h, Stock Solution 2.5 wt %) was 100%, the “Stability: % Siloxane Surfactant Remaining” value ([4]; pH 7, 3 wk, Stock Solution 2.5 wt %) was 100% and the “Stability: % Siloxane Surfactant Remaining” value ([4]; pH 7, 6 wk, Stock Solution 2.5 wt %) was 100%. The “Stability: % Siloxane Surfactant Remaining” value ([4]; pH 7, 11 wk, Stock Solution 2.5 wt %) was 100%, the “Stability: % Siloxane Surfactant Remaining” value ([4]; pH 7, 96 h, Stock Solution 2.5 wt %) was 100% and the “Stability: % Siloxane Surfactant Remaining” value ([4]; pH 9, 3 wk, Stock Solution 2.5 wt %) was 100%. The “Stability: % Siloxane Surfactant Remaining” value ([4]; pH 9, 6 wk, Stock Solution 2.5 wt %) was 100%, the “Stability: % Siloxane Surfactant Remaining” value ([4]; pH 9, 11 wk, Stock Solution 2.5 wt %) was 100% and the “Stability: % Siloxane Surfactant Remaining” value ([4]; pH 9, 96 h, Stock Solution 2.5 wt %) was 100%. For the same compound, the “Stability: % Siloxane Surfactant Remaining” value ([4]; pH 10, 3 wk, Stock Solution 2.5 wt %) was 100%, the “Stability: % Siloxane Surfactant Remaining” value ([4]; pH 10, 6 wk, Stock Solution 2.5 wt %) was 100% and the “Stability: % Siloxane Surfactant Remaining” value ([4]; pH 10, 11 wk, Stock Solution 2.5 wt %) was 100%. The “Stability: % Siloxane Surfactant Remaining” value ([4]; pH 10, 96 h, Stock Solution 2.5 wt %) was 100%.
